# Laboratory results from US20240168041A1, “SYSTEMS AND METHODS ENABLING PH[…] TESTING OF PATCH-CLAMP SAMPLES” (priority 2021, published 2024).
# Values joined by “and” are separate entries in the source; they are usually repeats but may differ in a detail not shown here. Equal values may be shown once. Read-outs that look alike come from different tables or passages of the source.
# How the values were obtained:
# [1] = target: T1, NMDAR (GluN1/GluN2A) in transiently transfected HEK cells (Rattus norvegicus, UniProt P35439+Q00959); experiment: Rapid agonist application patch-clamp recording of NMDAR responses (patcherBotPharma); assay type: cell-based; conditions: rapid application of 1 mM Glutamate for 1 sec; −40 mV
# T1 construct: expressed in transfected cells; host or cells: HEK-293 cells (CRL 1573, ATCC); calcium phosphate transient transfection with GFP co-transfected
# T1 sequence (Q00959 23-1464, other chains not shown): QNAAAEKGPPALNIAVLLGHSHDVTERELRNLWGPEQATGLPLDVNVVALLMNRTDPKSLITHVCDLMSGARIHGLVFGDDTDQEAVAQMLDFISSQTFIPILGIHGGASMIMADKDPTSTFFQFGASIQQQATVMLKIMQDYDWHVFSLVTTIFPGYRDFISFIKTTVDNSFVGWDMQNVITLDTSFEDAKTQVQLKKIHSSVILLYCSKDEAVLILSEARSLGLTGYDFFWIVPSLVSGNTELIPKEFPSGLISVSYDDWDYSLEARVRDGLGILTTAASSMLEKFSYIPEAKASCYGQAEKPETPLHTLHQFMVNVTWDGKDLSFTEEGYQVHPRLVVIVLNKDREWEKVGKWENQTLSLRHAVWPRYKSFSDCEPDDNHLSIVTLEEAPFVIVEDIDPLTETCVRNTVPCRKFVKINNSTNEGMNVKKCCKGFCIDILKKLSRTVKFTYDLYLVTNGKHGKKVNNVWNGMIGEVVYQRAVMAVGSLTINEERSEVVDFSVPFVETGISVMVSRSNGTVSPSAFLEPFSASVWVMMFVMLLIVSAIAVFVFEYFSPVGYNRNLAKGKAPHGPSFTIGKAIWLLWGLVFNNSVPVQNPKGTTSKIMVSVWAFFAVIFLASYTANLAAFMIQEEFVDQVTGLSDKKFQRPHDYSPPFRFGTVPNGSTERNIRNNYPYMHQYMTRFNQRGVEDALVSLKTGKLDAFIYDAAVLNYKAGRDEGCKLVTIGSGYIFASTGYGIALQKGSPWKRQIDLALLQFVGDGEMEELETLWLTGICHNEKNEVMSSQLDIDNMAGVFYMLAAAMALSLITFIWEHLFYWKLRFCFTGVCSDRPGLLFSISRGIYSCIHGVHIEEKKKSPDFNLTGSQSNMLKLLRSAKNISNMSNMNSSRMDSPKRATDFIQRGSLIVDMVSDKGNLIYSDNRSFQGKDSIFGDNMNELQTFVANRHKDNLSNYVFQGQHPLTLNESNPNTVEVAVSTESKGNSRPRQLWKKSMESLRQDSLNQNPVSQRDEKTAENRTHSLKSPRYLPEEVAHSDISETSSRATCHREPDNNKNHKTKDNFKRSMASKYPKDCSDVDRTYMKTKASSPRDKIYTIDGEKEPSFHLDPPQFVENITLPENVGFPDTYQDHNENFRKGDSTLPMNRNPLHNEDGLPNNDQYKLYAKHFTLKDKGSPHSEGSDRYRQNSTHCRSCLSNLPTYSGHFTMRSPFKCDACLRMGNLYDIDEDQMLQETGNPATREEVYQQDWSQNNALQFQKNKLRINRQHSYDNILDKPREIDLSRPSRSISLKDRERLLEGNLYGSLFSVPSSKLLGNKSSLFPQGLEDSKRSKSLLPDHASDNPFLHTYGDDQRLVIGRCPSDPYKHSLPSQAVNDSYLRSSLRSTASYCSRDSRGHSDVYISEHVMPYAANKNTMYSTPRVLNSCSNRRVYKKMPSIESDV
# [2] = target: T1, NMDAR (GluN1/GluN2A) in transiently transfected HEK cells; experiment: as above; assay type: cell-based; conditions: rapid application of 1 mM Glutamate for 1 sec; −60 mV
# Protocol: (§1) Recordings are from a lifted whole cell (left) and an outside-out patch using a 4 MΩ electrode (right), at −60 mV in 0 mM Mg^2+. […] Recordings are from a lifted whole cell (left, 1 s application) and an outside-out patch (right, 5 ms application).
# HEK-293 cells (CRL 1573, ATCC; hereafter HEK cells) and a stable GABAAR-expressing cell line were cultured in DMEM (Cat #10566016, ThermoFisher Scientific) supplemented with 10% fetal bovine serum (FBS), 10 U/ml penicillin, and 10 lag/ml streptomycin and maintained at 5% CO2 in a 37° C. incubator. For use on the electrophysiology rig, heterologous cells were plated on poly-D-Lysine (PDL) coated glass coverslips (0.1-0.5 mg/mL, Warner Instruments). Transiently transfected recombinant receptors were expressed from complementary DNA (cDNA) encoding rat GluN1-1a (hereafter GluN1, U08261) and GluN2A (D13211). Calcium phosphate was used to transiently transfect HEK cells in a 24-well plate with 500 ng of cDNA at a ratio of 1:1:5 (GluN1:GluN2A:GFP). Four hours after transfection, NMDAR antagonists D,L-2amino-5-phosphonovalerate (200 μM, DL-APV) and 7-chlorokynurenic acid (200 μM) were added to the culture medium to decrease the cytotoxic effect of NMDAR expression.
# (§2) Whole-cell voltage-clamp recordings were performed with thin-walled borosilicate glass electrodes (3-6 MΩ, TW150E-4, World Precision Instruments) filled with solution containing (in mM) 110 Cs-gluconate, 30 CsCl, 5 HEPES, 4 NaCl, 0.5 CaCl2, 2 MgCl2, 5 BAPTA, 2 NaATP, 0.3 NaGTP (pH 7.35). The extracellular recording solution contained (in mM) 150 NaCl, 10 HEPES, 3 KCl, 0.5 CaCl2, 1 MgCl2, and 0.01 EDTA (pH 7.4). Whole cell recording from primary cortical neurons (examples showing alternative experiment paradigm in the supplemental) were obtained utilizing an internal solution, containing (in mM) 115 K-gluconate, 20 KCl, 10 HEPES, 2 Mg2ATP, 0.3 NaGTP, and 10 Na2Phosphocreatine (pH 7.35), and external solution stated above but with 1 mM CaCl2. The electrode cleaning solution (2% Tergazyme in water) was made fresh daily. Cleaned electrodes were washed in appropriate internal solution. All solutions were filtered (0.45 μm or 0.22 μm). Responses were recorded using a Multiclamp 700B (Molecular Devices), filtered at 10 kHz (−3 dB), and digitized at 20 kHz.
# (§3) Whole-cell rapid solution exchange experiments were analyzed using custom algorithms (Matlab, Mathworks). The desensitization and deactivation time courses were fitted by exponential functions based on receptor type. For NMDAR desensitization and GABAAR deactivation, they were fit by one exponential function,
# A series of pharmacology experiments were performed on GABAAR and NMDARs where rapid agonist application was applied to excised outside-out patches to assess patcherBotPharma performance on the minimum processes required in an experiment, described in more detail in Table 1).
# [3] = target: T2, GABAAR (α1β2γ2 L) in stably transfected HEK cells (Mus musculus, UniProt P22723+P62812+P63137); experiment: Rapid agonist application patch-clamp recording of GABAAR responses (patcherBotPharma); assay type: cell-based; conditions: rapid application of 1 mM GABA for 1 sec
# T2 construct: expressed in transfected cells; host or cells: HEK 293 cells
# T2 sequence (P62812 28-455): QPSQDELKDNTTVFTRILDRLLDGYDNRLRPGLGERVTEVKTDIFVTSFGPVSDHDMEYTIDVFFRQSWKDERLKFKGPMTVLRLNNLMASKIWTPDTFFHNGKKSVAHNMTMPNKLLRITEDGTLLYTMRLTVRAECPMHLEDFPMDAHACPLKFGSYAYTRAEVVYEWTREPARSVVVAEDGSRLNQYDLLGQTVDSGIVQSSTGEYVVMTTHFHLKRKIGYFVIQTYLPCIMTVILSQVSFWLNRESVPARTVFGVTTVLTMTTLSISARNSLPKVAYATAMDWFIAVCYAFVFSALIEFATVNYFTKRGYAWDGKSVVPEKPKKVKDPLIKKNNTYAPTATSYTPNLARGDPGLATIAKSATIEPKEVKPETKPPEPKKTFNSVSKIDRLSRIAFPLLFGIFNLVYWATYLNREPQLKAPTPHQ
# T2 sequence (P63137 25-512 limits assumed): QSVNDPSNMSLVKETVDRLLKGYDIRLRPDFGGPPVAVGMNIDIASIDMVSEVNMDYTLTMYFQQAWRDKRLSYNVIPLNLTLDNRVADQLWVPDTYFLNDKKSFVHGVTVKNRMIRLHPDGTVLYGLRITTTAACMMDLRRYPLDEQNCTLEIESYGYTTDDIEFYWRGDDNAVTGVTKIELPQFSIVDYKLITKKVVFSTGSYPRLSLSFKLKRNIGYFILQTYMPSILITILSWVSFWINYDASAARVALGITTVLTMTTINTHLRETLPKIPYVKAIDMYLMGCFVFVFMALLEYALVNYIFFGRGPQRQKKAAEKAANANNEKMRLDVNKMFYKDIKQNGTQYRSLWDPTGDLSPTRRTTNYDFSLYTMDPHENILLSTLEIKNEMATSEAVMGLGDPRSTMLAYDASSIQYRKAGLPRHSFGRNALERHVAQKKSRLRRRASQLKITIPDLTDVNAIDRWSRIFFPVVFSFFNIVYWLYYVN
# T2 sequence (P22723 39-474): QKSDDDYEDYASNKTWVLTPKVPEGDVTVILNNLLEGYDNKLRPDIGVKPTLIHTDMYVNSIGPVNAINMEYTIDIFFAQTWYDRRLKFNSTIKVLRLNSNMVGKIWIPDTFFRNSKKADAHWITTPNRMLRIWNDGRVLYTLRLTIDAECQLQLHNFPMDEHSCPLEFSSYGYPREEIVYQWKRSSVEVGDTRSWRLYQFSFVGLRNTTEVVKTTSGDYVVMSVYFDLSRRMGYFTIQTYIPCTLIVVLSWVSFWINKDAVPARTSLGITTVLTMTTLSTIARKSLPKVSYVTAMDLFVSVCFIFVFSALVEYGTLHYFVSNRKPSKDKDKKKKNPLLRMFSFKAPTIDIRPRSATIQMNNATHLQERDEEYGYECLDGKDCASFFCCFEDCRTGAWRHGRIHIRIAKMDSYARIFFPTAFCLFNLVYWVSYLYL
# Protocol: as §1
# (§4) cDNAs for mouse Gabra1, Gabrb2, and the long form of Gabrg2 were subcloned into the pAC156 plasmid, a generous gift from Albert Cheng. The cDNAs were driven by an EF1alpha promoter. A PGK promoter-driven puromycin resistance cassette was also present in pAC156; both cassettes were flanked by piggybac transposon arms. All three plasmids were co-transfected with the mPB piggybac transposase into HEK 293 cells, selected by puromycin, and sorted into single cells. Clones were assayed for Gabra1, Gabrb2, and Gabrg2 expression by immunofluorescence, and one clone was expanded for further study and use in this description herein. Trypsin was used to dissociate the cells and plated on the same coverslips, as mentioned above, 24-72 hours before experimentation (shorter time and less PDL for lifted cell, and the inverse for excised patches).
# as §2, §3
# In this experimental run, the patcherBotPharma was programmed to collect four-phase recordings. During each phase, five technical replicate sweeps were collected, a 10 sec sweep with agonist applied for 0.5 sec. Following each set of recordings, the patch was blown off with high pressure and the open-tip exchange time was determined to validate the electrode positioning.
# [4] = target: T3, GABAAR in stably expressing HEK cells (Mus musculus, UniProt P22723+P62812+P63137); experiment: cell-based
# T3 construct: expressed in transfected cells; host or cells: HEK 293 cells
# T3 sequence (P62812 28-455): as the sequence (P62812 28-455) above
# T3 sequence (P63137 25-512 limits assumed): as the sequence (P63137 25-512 limits assumed) above
# T3 sequence (P22723 39-474): as the sequence (P22723 39-474) above
# Text: FIGS. 5A through 5D provides various steps system 500 can perform to achieve a time-constant concentration response of deactivation of a cell receptor exposed to a drug. […] FIGS. 5A through 5D the individual steps in a flowchart illustrating the patcherBotPharma operation, timing, and success rate. After the one-time calibration and cell selection step 502, system 500 loops through and serially records from the selected cells in steps 504 through 514. Quality control measures are in place at steps 506, 508a, 508b, and 510 to terminate the current experiment and continue to the next iteration, as shown in FIG. 5A. System 500 can perform calibration and cell selection 502 manually such that the user selects one or more cells within a biological sample. In some instances, calibration and cell selection 502 can be performed automatically. For instance, calibration can be pre-programed and stored in memory 66 of controller 200. Alternatively, or in addition thereto, calibration can be automatically sensed by a combination of the manipulator assembly 120 and automated control of a microscope.
# After quality control measures verify an appropriate seal between the pipette tip 110 and the cell target, system 500 can initiate the experimental protocol at step 512. […] Each phase of each experiment would start with the valves changing to the next set to be tested, with a wait step to allow for the solutions to be primed, followed by the collection of 10 replicates of the intended jump protocol.
# as §4, §2
# Whole-cell rapid solution exchange experiments were analyzed using custom algorithms (Matlab, Mathworks). The desensitization and deactivation time courses were fitted by exponential functions based on receptor type.
# [5] = 1 mM GABA for 0.5 sec, propofol-free GABA Control, concentration set 1
# [6] = 1 mM GABA for 0.5 sec, propofol-free GABA Control, concentration set 2
# [7] = 0.5 μM PRO, 1 mM GABA for 0.5 sec, set 1
# [8] = 1 μM PRO, 1 mM GABA for 0.5 sec, set 2
# [9] = 2 μM PRO, 1 mM GABA for 0.5 sec, set 1
# [10] = 5 μM PRO, 1 mM GABA for 0.5 sec, set 2
# [11] = 10 μM PRO, 1 mM GABA for 0.5 sec, set 1
# [12] = 20 μM PRO, 1 mM GABA for 0.5 sec, set 2
# [13] = 50 μM PRO, 1 mM GABA for 0.5 sec, set 1
# [14] = 100 μM PRO, 1 mM GABA for 0.5 sec, set 2
compound,measurement,setting,value
"N[C@@H](CCC(=O)O)C(=O)O [Glutamate, glutamate]",Deactivation Tau,[1],71.9 ± 11.0 ms
same,Desensitization Extent (SS/Peak %),[1],34.2 ± 6.4%
same,Desensitization Tau,[1],388 ± 75 ms
same,Response Peak Amplitude,[1],271 ± 104 pA
same,Response Steady State Amplitude,[1],130 ± 68 pA
same,Deactivation Tau,[2],81.3 ± 18.4 ms
same,Desensitization Extent (SS/Peak %),[2],54.8 ± 6.9%
same,Desensitization Tau,[2],984 ± 192 ms
same,Response Peak Amplitude,[2],326 ± 180 pA
same,Response Steady State Amplitude,[2],215 ± 139 pA
NCCCC(=O)O [GABA],Deactivation Tau,[3]; −40 mV,216 ± 29 ms
same,Desensitization Extent (SS/Peak %),[3]; −40 mV,26.4 ± 1.8%
same,Desensitization Tau,[3]; −40 mV,681 ± 130 ms
same,Response Peak Amplitude,[3]; −40 mV,586 ± 150 pA
same,Response Steady State Amplitude,[3]; −40 mV,170 ± 54 pA
same,Deactivation Tau,[3]; −60 mV,133 ± 6 ms
same,Desensitization Extent (SS/Peak %),[3]; −60 mV,24.8 ± 1.1%
same,Desensitization Tau,[3]; −60 mV,965 ± 298 ms
same,Response Peak Amplitude,[3]; −60 mV,173 ± 48 pA
same,Deactivation Tau,[4]; [5],129 ± 11 ms
same,Desensitization Extent (SS/Peak %),[4]; [5],39.3 ± 2.0%
same,Response Peak Amplitude,[4]; [5],133 ± 36 pA
same,Response Steady State Amplitude,[4]; [5],51.1 ± 12.3 pA
same,Deactivation Tau,[4]; [6],130 ± 27 ms
same,Desensitization Extent (SS/Peak %),[4]; [6],31.8 ± 7.7%
same,Response Peak Amplitude,[4]; [6],93.6 ± 6.8 pA
same,Response Steady State Amplitude,[4]; [6],30.5 ± 8.1 pA
CC(C)c1cccc(C(C)C)c1O [propofol],Deactivation Tau,[4],143 ± 25 ms and 129 ± 12 ms
same,Desensitization Extent (SS/Peak %),[4],41.8 ± 1.7% and 25.2 ± 13.5%
same,EC50,[4],11.8 ± 4.6 µM
same,Deactivation Tau,[4]; [7],116 ± 13 ms
same,Desensitization Extent (SS/Peak %),[4]; [7],39.6 ± 1.3%
same,Response Peak Amplitude,[4]; [7],100 ± 20 pA
same,Response Steady State Amplitude,[4]; [7],40.4 ± 8.9 pA
same,Deactivation Tau,[4]; [8],110 ± 15 ms
same,Desensitization Extent (SS/Peak %),[4]; [8],34.9 ± 6.7%
same,Response Peak Amplitude,[4]; [8],72.2 ± 18.0 pA
same,Response Steady State Amplitude,[4]; [8],24.2 ± 6.6 pA
same,Deactivation Tau,[4]; [9],128 ± 13 ms
same,Desensitization Extent (SS/Peak %),[4]; [9],40.0 ± 1.7%
same,Response Peak Amplitude,[4]; [9],109 ± 32 pA
same,Response Steady State Amplitude,[4]; [9],45.6 ± 14.9 pA
same,Deactivation Tau,[4]; [10],198 ± 29 ms
same,Desensitization Extent (SS/Peak %),[4]; [10],30.0 ± 5.1%
same,Response Peak Amplitude,[4]; [10],37.8 ± 9.1 pA
same,Response Steady State Amplitude,[4]; [10],11.1 ± 2.4 pA
same,Deactivation Tau,[4]; [11],208 ± 20 ms
same,Desensitization Extent (SS/Peak %),[4]; [11],43.1 ± 2.2%
same,Response Peak Amplitude,[4]; [11],96.0 ± 25.2 pA
same,Response Steady State Amplitude,[4]; [11],42.1 ± 11.6 pA
same,Deactivation Tau,[4]; [12],328 ± 53 ms
same,Desensitization Extent (SS/Peak %),[4]; [12],25.2 ± 6.6%
same,Response Peak Amplitude,[4]; [12],21.5 ± 4.6 pA
same,Response Steady State Amplitude,[4]; [12],6.1 ± 2.2 pA
same,Deactivation Tau,[4]; [13],331 ± 21 ms
same,Desensitization Extent (SS/Peak %),[4]; [13],33.8 ± 2.7%
same,Response Peak Amplitude,[4]; [13],63.9 ± 17.8 pA
same,Response Steady State Amplitude,[4]; [13],23.5 ± 7.4 pA
same,Deactivation Tau,[4]; [14],415 ± 226 ms
same,Response Peak Amplitude,[4]; [14],8.9 ± 1.2 pA
same,Response Steady State Amplitude,[4]; [14],5.8 ± 7.5 pA
